# In patent US6013672A, “Agonists of metabotropic glutamate receptors and uses thereof” (UAB Research Foundation, priority 1997, dated 2000):
# Where two headings read alike, the source gives them in different places.
# Columns and labels:
# hippocampal astrocytes [1] = experiment: Extracellular glutamate [Glu]o released by astrocyte cultures (bioluminescence); assay type: cell-based, rat; settings: for effect on [Glu]o / glutamate release: cells treated for 24 hours, then MEM; for effect on [Glu]o when Na+ gradient is disrupted: 1.0 mM Ouabain, 1.0/5.0 mM L-AA, 30 minute treatment; for antagonism of ACPD effects on [Glu]o: applied simultaneously with ACPD; for antagonism of the effect of L-CCG-I on [Glu]o: data not shown; for order of potency in mimicking ACPD effect on glutamate release: FIG. 7B
# hippocampal astrocytes [2] = experiment: 3H-D-aspartate (glutamate/aspartate) uptake in astrocytes; assay type: cell-based, rat; settings: for effect on aspartate uptake: KA or NMDA 1 mM, 24 hours
# Description: Uptake procedures were essentially identical to those previously described (Kimelberg et al. 1989; Ye et al., 1996). Briefly, 5-10 minutes before assessing uptake, astrocytes were washed and kept in a solution containing (in mM): NaCl 122, KCl 3, MgSO4 0.4, KH2 PO4 1.2, NaHCO3 25, D-glucose 10, and CaCl2 1.3, at 37° C., bubbled with 5%/95% CO2 /O2. Then the cells were switched to the above solution supplemented with 0.1 mM D-aspartate and 0.4 μCi/ml ^3 H-D-aspartate. Glutamate/aspartate uptake was determined over a 10 or 30 minutes period and was terminated by three quick washes, twice with ice cold 0.29 M sucrose solution with 10 mM Tris Nitrate, 0.5 mM Ca(NO3)2, (pH 7.40 by NaOH) and then with ice cold PBS. Cells were then harvested after a 30 minute incubation in 0.3 N NaOH solution (37° C.) and ^3 H activity was determined in a liquid scintillation counter (Beckman). Total uptake was normalized to protein content to eliminate variability due to cell number. Protein levels were determined using the bicinchoninic acid (BCA) assay (Pierce; Rockford, Ill.).
# glial cells = experiment: Glial glutamate uptake and extracellular glutamate with MPTP/MPP+ and t-ACPD; assay type: cell-based; settings: for elevations of extracellular glutamate levels: glial cells
# Description: The normally low glutamate levels in the brain are established and maintained in glial cells by non-vesicular uptake of glutamate through a Na^+ -dependent transporter (FIG. 14). Once taken up, glutamate can be converted to glutamine and recycled for neurotransmitter synthesis in neurons (FIG. 14). If glial cells in culture are exposed to high glutamate concentrations (e.g., 100 μM), they will remove it from the extracellular space and essentially "detoxify" the neuronal environment. […] Under those conditions, extracellular glutamate levels are elevated to 7 μM (FIG. 16), which is toxic to most surrounding neurons.
# Impaired glial glutamate transport may contribute to the loss of dopaminergic neurons in Parkinson's disease. Thus, stimulation of this pathway would be neuroprotective. A drug and its receptor on glial cells was identified that allows enhanced glutamate detoxification. Specifically, trans-ACPD (trans-1-amino-1,3-cyclopentane dicarboxylic acid) (t-ACPD), a group II metabotropic glutamate receptor agonist, enhanced glial glutamate uptake (FIG. 17). It's actions were 2-fold; (i) it enhanced glutamate uptake by up to 80%, and (ii) it decreased non-specific release of glutamate, effectively trapping glutamate inside glial cells. In fact, the release of glutamate decreased to such a large extent that it almost made the transporter rectify, e.g. allowing only influx and preventing outflow of glutamate (FIG. 18). […] Using antibodies and further pharmacological studies, the receptor that is responsible for these effects has been identified as mGluR2/3.
# In Parkinson's disease, it is believed that neurons may die of excitotoxic exposure to glutamate. The present invention determined that MPTP directly effects glutamate uptake into astrocytes (FIG. 21, top left). […] This increased release may be sufficient to explain some of the subsequent neurodegeneration.
# dopaminergic neurons = experiment: Cell death of dopaminergic neurons induced by glutamate or MPTP; assay type: cell-based, rat; settings: 0.2 mM
# Description: Cell death of dopaminergic neurons induced by glutamate, and the role of glial glutamate transport in protection of cell death at the cellular level were studied as it relates to Parkinson's disease. […] Thus, glutamate concentrations as low as 3-5 μM induced rapid cell death (FIGS. 11 and 12). Glutamate concentrations were also measured in the normal brain. They are typically around 1 μM, below the toxic level for dopaminergic neurons. […] This late onset of glutamate toxicity is compatible with the late onset of Parkinson's disease.
# hippocampal astrocytes [3] = experiment: Intracellular glutamate content [Glu]i of astrocytes; assay type: cell-based, rat; settings: 70 minutes incubation with 500 μM
# Description: For experiments in which [Glu]o concentrations were assessed by the bioluminescence method, cells were maintained in glutamate-depleted medium in the presence or absence of the agonists/antagonist combination of interest. […] After the incubation period, the stimulation media (containing drugs of interest) were aspirated and cells were washed twice with MEM and allowed to remain for 30 to 60 minutes in drug free MEM supplemented with 20 mM glucose prior to taking media samples for glutamate measurements. To assess acute drug effects, untreated cells were washed and the reagent of interest applied in glucose supplemented MEM. Cells were harvested in 0.3 N NaOH and neutralized with 0.3 N HCl. Aliquots were stored in -20° C. for protein and [Glu]i determination. Glutamate standards used for calibration were prepared in MEM (For [Glu]i in 0.15 N NaCl).
# [4] = co-incubation, Forskolin 10 μM, Db-cAMP 0.2 mM
molecule,measurement,setting,value
cholera toxin,effect on ACPD effects on [Glu]o,hippocampal astrocytes [1],neither inhibited nor mimicked ACPD effects
"N[C@@H](CCP(=O)(O)O)C(=O)O [L-AP4, L(+)-2-amino-4-phosphonobutyric acid]",effect on [Glu]o / glutamate release,hippocampal astrocytes [1],ineffective
"N[C@@H](CCCC(=O)O)C(=O)O [L-AA, L-aminoadipic acid]",effect on [Glu]o when Na+ gradient is disrupted,hippocampal astrocytes [1],elevated [Glu]o
CN[C@H](CC(=O)O)C(=O)O [NMDA],effect on aspartate uptake,hippocampal astrocytes [2],No significant effects
same,effect on [Glu]o / glutamate release,hippocampal astrocytes [1],ineffective
"C[C@@](N)(C(=O)O)c1ccc(C(=O)O)cc1 [MCPG, (S)-α-methyl-4-carboxyphenylglycine]",antagonism of ACPD effects on [Glu]o,hippocampal astrocytes [1],unable to suppress ACPD effects on [Glu]o
same,antagonism of the effect of L-CCG-I on [Glu]o,hippocampal astrocytes [1],failed to inhibit the effect of other mGluR agonists
"N[C@@]1(C(=O)O)CC[C@H](C(=O)O)C1 [1S3S-ACPD, (1S,3S)-1-aminocyclopentane-1,3-dicarboxylic acid]",order of potency in mimicking ACPD effect on glutamate release,hippocampal astrocytes [1],S-4CPG>1S3R-ACPD>L-CCG-I>1S3S-ACPD=QA
same,effect on [Glu]o / glutamate release,hippocampal astrocytes [1],reduce [Glu]o in a dose-dependent manner
"CC[C@](N)(CCC(=O)O)C(=O)O [EGLU, (2S)-α-Ethylglutamic acid]",antagonism of ACPD effects on [Glu]o,hippocampal astrocytes [1],unable to suppress ACPD effects on [Glu]o
same,antagonism of the effect of L-CCG-I on [Glu]o,hippocampal astrocytes [1],failed to inhibit the effect of other mGluR agonists
C=C(C)[C@H]1CN[C@H](C(=O)O)[C@H]1CC(=O)O [KA],effect on aspartate uptake,hippocampal astrocytes [2],No significant effects
same,effect on [Glu]o / glutamate release,hippocampal astrocytes [1],ineffective
C[C@@H]1O[C@@H](O[C@H]2C[C@@H](O)[C@]3(CO)[C@H]4[C@H](O)C[C@]5(C)[C@@H](C6=CC(=O)OC6)CC[C@]5(O)[C@@H]4CC[C@]3(O)C2)[C@H](O)[C@H](O)[C@H]1O [Ouabain],effect on [Glu]o when Na+ gradient is disrupted,hippocampal astrocytes [1],elevated [Glu]o
"N[C@H](C(=O)O)c1ccc(C(=O)O)cc1 [S-4CPG, (S)-4-carboxyphenylglycine]",order of potency in mimicking ACPD effect on glutamate release,hippocampal astrocytes [1],S-4CPG>1S3R-ACPD>L-CCG-I>1S3S-ACPD=QA
same,effect on [Glu]o / glutamate release,hippocampal astrocytes [1],reduce [Glu]o in a dose-dependent manner
"CN1CC=C(c2ccccc2)CC1 [MPTP, 1-methyl-4-phenyl-1-1,2,3,6-tetrahydropyridine]",ability of glial cells to detoxify glutamate,glial cells,compromised in a dose dependent manner
same,extracellular glutamate levels elevated to,glial cells,7 µM
same,elevations of extracellular glutamate levels,glial cells,up to 5 fold
same,neuronal cell death,dopaminergic neurons,wide-spread cell death within less than 24 hours
"N[C@H](C(=O)O)c1cc(O)cc(O)c1 [DHPG, (S)-3,5-dihydroxyphenylglycine]",effect on [Glu]o / glutamate release,hippocampal astrocytes [1],ineffective
"N[C@H](C(=O)O)[C@H](O)C(=O)O (relative stereo) [THA, DL-threo-β-hydroxyaspartate]",glutamate release induced by transportable uptake inhibitor,"hippocampal astrocytes [1]; 5-2000 μM in glutamate free MEM, 25 and 70 minutes",increased glutamate release from astrocytes in a dose- and time-dependent manner
same,minimal effective concentration,"hippocampal astrocytes [1]; Rattus norvegicus, Astrocyte, glutamate free MEM, read-out: concentration giving significant increases in glutamate release",> 100 µM
same,activity at 500 µM,"hippocampal astrocytes [3]; Rattus norvegicus, Astrocyte, 70 min, read-out: cellular glutamate content",110 ± 14.7%
C=C[C@@]1(C)CC(=O)[C@]2(O)[C@@]3(C)[C@@H](O)CCC(C)(C)[C@@H]3[C@H](O)[C@H](OC(C)=O)[C@@]2(C)O1 [Forskolin],effect on ACPD effects on [Glu]o,hippocampal astrocytes [1]; [4],neither blocked nor facilitated the ACPD effects on [Glu]o
"C[C@@](N)(C(=O)O)[C@H]1C[C@@H]1C(=O)O [MCCG, (2S,3S,4S)-2-methyl-2-(carboxycyclopropyl)glycine]",antagonism of ACPD effects on [Glu]o,hippocampal astrocytes [1],unable to suppress ACPD effects on [Glu]o
same,antagonism of the effect of L-CCG-I on [Glu]o,hippocampal astrocytes [1],failed to inhibit the effect of other mGluR agonists
"C[n+]1ccc(-c2ccccc2)cc1 [MPP^+, 1-methyl-4-phenylpyridinium]",extracellular glutamate levels elevated to,glial cells,7 µM
same,elevations of extracellular glutamate levels,glial cells,up to 5 fold
"O=C(O)[C@@H]1CN[C@@H](C(=O)O)C1 (relative stereo) [PDC, 1-trans-pyrrolidine-2,4,-dicarboxylate]",cellular glutamate content,hippocampal astrocytes [3],102.9±12.1 % of control
"CCCC(=O)Nc1ncnc2c1ncn2[C@@H]1O[C@@H]2COP(=O)(O)O[C@H]2[C@H]1OC(=O)CCC [Db-cAMP, Dibutylyl-cAMP]",effect on ACPD effects on [Glu]o,hippocampal astrocytes [1]; [4],neither blocked nor facilitated the ACPD effects on [Glu]o
same,effect on [Glu]o alone,"hippocampal astrocytes [1]; up to highest concentration tested, 3 mM",did not significantly change [Glu]o
"N[C@@H](Cn1oc(=O)[nH]c1=O)C(=O)O [QA, Quisqualic acid]",order of potency in mimicking ACPD effect on glutamate release,hippocampal astrocytes [1],S-4CPG>1S3R-ACPD>L-CCG-I>1S3S-ACPD=QA
same,effect on [Glu]o / glutamate release,hippocampal astrocytes [1],reduce [Glu]o in a dose-dependent manner
pertussis toxin,inhibition of ACPD modulation of [Glu]o,hippocampal astrocytes [1]; 0.01-500 ng/ml added 6 hours prior to ACPD,failed to inhibit ACPD modulation
same,reversal of ACPD modulation of [Glu]o,hippocampal astrocytes [1]; applied after ACPD had been washed off,failed to reverse the modulatory effects of ACPD
"N[C@H](C(=O)O)[C@H]1C[C@@H]1C(=O)O [L-CCG-I, (2S,3S,4S)-2-(carboxycyclopropyl) glycine]",order of potency in mimicking ACPD effect on glutamate release,hippocampal astrocytes [1],S-4CPG>1S3R-ACPD>L-CCG-I>1S3S-ACPD=QA
same,effect on [Glu]o / glutamate release,hippocampal astrocytes [1],reduce [Glu]o in a dose-dependent manner
N[C@@]1(C(=O)O)CC[C@@H](C(=O)O)C1 [ACPD],dose required for enhancement of uptake,hippocampal astrocytes [2],≈ 500 μM
same,acute effect on uptake,hippocampal astrocytes [2]; acute application of up to 3 hours,ineffective in enhancing uptake
same,enhancement of uptake,"hippocampal astrocytes [2]; astrocytes from animals >P9, n=11",35.2%±3.8%
same,enhancement of uptake,"hippocampal astrocytes [2]; astrocytes from neonatal rat pups, n=14",24.5%±2.4%
same,enhancement of uptake by region,hippocampal astrocytes [2]; hippocampal and spinal cord astrocytes,significant enhancement of uptake
same,persistence of effects (FIG. 6 Off curve),hippocampal astrocytes [1],over 10 hours
same,preincubation time for maximal effect (FIG. 6 On curve),hippocampal astrocytes [1],> 6 h
same,effect remaining after washout,hippocampal astrocytes [1]; 10 hours after ACPD had been washed off,50%
same,time for effect to return to control levels after washout,"hippocampal astrocytes [1]; 24 hours treatment, then ACPD free glutamate-depleted medium",about 20 hours
same,reduction in the steady-state [Glu]o,"hippocampal astrocytes [1]; astrocytes cultured from animals >P10, on average",≈ 5 fold
same,reduction in the steady-state [Glu]o,hippocampal astrocytes [1]; astrocytes cultured from younger animals,30-50%
same,ACPD modulation of [Glu]o under disrupted Na+ gradient,"hippocampal astrocytes [1]; low Na+/high K+, Ouabain or L-AA",failed to modulate [Glu]o
"N[C@@H](CS(=O)O)C(=O)O [L-CSA, L-cystein-sulfinic acid]",effect on [Glu]o / glutamate release,hippocampal astrocytes [1],ineffective
"C[C@@H]1C[C@@H]([C@H](O)CC2CC(=O)NC(=O)C2)C(=O)[C@@H](C)C1 [cycloheximade, cycloheximide]",effect on ACPD induced attenuation of [Glu]o,hippocampal astrocytes [1]; 2 μg/ml,could not inhibit the ACPD induced attenuation of [Giu]o
